Data reported in the NIST ThermoML archive (doi:10.1016/j.jct.2015.06.014).

Experiment: molar heat capacity at constant pressure
Conditions: Liquid, Large sample (1 g) DSC

FC(F)(F)CC(F)(F)F [1,1,1,3,3,3-hexafluoropropane]
molar heat capacity at constant pressure [J/K/mol]
Conditions	1480 kPa	2490 kPa	3540 kPa	4560 kPa	5410 kPa
315.15 K	195.67	193.7	192.48	191.42	190.05
320.15 K	198.71	196.59	194.91	193.7	192.78
325.15 K	202.06	199.78	197.95	196.43	195.67
330.15 K	205.71	203.28	201.45	199.78	199.02
335.15 K	209.36	207.08	205.1	203.28	202.21
340.15 K	213.46	210.73	208.6	206.77	205.56
345.15 K	218.02	214.83	212.25	210.27	208.9
350.15 K	223.34	219.24	216.35	214.07	212.4
355.15 K	–	224.56	221.22	218.33	216.35
360.15 K	–	231.1	226.84	223.5	221.06
365.15 K	–	239.92	233.53	230.49	227.45

FC(F)CC(F)(F)F [1,1,1,3,3-pentafluoropropane]
molar heat capacity at constant pressure [J/K/mol]
Conditions	1590 kPa	2520 kPa	3480 kPa	4530 kPa	5500 kPa
315.15 K	184.58	184.05	183.78	182.98	182.44
320.15 K	185.79	185.12	184.72	183.91	183.24
325.15 K	187.8	186.73	186.19	185.39	184.58
330.15 K	191.02	189.95	189.01	188.07	187.13
335.15 K	195.31	194.37	193.16	191.82	191.02
340.15 K	200.13	199.2	197.85	196.25	195.44
345.15 K	204.83	204.02	202.55	200.94	200.13
350.15 K	209.52	208.44	207.1	205.5	204.56
355.15 K	214.07	212.73	211.66	210.05	208.98
360.15 K	219.3	217.69	216.76	214.74	213.67
365.15 K	226.54	224.26	222.65	220.51	219.44
